For experiment [1], the target named is Serine/threonine-protein kinase Chk2 (Homo sapiens) (UniProt O96017). Put plainly: Inhibition of CHK2 at 1 uM.
The target in experiment [2] is Cyclin-dependent kinase 2/cyclin A (Homo sapiens) (UniProt P24941+P20248+P78396). Put plainly: Inhibition of CDK2/cyclin A. Type of experiment: protein-complex assay. The note with it: concentration not given here.
Experiment [3] concerns the target Hepatocyte growth factor receptor (Homo sapiens) (UniProt P08581). Put plainly: Inhibition of MET at 1 uM.
Experiment [4] addresses Tyrosine-protein kinase Lck (Homo sapiens) (UniProt P06239). Nature of the experiment: Inhibition of LCK at 1 uM.
In experiment [5] the target is Serine/threonine-protein kinase PAK 4 (Homo sapiens) (UniProt O96013). Put plainly: Inhibition of PAK4 at 1 uM.
Experiment [6] has as its target MAP kinase-activated protein kinase 2 (Homo sapiens) (UniProt P49137). Nature of the experiment: Inhibition of MK2 at 1 uM.
For experiment [7], the target named is T1, Aurora kinase A (Homo sapiens) (UniProt O14965).
T1 sequence (whole entry): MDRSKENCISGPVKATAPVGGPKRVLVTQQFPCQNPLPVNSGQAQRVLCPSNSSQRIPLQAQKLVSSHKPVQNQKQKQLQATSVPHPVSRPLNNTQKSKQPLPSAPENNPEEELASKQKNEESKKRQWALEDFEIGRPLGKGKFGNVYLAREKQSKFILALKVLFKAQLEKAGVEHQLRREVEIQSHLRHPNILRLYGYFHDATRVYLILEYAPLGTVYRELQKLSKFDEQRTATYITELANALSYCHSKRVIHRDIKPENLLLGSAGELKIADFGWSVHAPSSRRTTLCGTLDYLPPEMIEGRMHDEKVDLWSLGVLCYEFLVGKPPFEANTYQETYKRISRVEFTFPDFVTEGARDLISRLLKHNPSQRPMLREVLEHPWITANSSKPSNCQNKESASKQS
Put plainly: Inhibition of Aurora A at 1 uM.

In experiment [8] the target is T2, Serine/threonine-protein kinase 3 (Homo sapiens) (UniProt Q13188).
T2 sequence (whole entry): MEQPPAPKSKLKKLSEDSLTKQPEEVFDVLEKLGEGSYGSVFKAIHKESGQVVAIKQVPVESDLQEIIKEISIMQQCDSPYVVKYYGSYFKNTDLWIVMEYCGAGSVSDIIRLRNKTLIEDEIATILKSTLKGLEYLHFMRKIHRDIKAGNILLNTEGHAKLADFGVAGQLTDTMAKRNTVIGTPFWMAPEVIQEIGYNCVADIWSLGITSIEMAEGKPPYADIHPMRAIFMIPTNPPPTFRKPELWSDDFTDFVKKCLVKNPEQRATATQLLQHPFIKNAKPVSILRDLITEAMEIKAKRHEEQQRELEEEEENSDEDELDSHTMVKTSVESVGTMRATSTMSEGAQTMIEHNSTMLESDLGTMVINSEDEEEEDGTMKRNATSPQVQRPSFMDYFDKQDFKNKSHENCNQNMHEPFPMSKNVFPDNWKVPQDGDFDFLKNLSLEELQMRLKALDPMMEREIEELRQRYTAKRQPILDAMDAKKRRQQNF
Put plainly: Inhibition of MST2 at 1 uM.

In experiment [9] the target is Fibroblast growth factor receptor 1 (Homo sapiens) (UniProt P11362). Nature of the experiment: Inhibition of FGFR1 at 1 uM.
Experiment [10] concerns the target Glycogen synthase kinase-3 beta (Homo sapiens) (UniProt P49841). Nature of the experiment: Inhibition of GSK3B at 1 uM.
Experiment [11] can be described thus: Inhibition of PKA at 1 uM.
The target in experiment [12] is Serine/threonine-protein kinase MARK1 (Homo sapiens) (UniProt Q9P0L2). Nature of the experiment: Inhibition of MARK1 at 1 uM.
Experiment [13] addresses T3, Tyrosine-protein kinase JAK3 (Homo sapiens) (UniProt P52333).
T3 sequence (whole entry): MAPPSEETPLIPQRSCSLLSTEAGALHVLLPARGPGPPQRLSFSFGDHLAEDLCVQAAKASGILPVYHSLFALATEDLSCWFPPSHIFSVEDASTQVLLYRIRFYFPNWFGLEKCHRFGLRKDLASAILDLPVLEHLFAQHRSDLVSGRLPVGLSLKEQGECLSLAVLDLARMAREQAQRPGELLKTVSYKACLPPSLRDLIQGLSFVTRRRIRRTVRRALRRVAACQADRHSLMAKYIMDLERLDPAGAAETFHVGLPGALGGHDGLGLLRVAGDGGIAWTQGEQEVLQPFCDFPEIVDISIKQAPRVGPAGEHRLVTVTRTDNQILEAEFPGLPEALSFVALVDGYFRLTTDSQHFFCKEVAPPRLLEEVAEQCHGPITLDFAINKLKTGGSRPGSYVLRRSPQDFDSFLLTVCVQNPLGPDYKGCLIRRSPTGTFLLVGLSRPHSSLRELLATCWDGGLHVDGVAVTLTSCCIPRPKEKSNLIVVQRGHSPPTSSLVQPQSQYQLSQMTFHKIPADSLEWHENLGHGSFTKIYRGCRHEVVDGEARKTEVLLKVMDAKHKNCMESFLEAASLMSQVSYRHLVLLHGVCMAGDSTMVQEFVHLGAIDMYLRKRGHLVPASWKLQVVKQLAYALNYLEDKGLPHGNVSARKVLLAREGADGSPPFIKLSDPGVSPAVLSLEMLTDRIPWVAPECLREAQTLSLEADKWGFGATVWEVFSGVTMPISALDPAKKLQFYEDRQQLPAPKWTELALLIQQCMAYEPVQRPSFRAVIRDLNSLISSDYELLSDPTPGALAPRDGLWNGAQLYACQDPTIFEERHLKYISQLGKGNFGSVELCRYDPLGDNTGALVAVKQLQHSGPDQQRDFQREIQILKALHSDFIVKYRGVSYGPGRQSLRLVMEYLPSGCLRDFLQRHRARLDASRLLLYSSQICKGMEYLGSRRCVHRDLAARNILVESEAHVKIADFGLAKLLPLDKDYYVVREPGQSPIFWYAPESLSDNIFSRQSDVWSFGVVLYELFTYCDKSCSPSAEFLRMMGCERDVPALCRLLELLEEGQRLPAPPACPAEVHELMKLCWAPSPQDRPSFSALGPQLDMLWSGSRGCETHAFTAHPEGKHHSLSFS
Nature of the experiment: Inhibition of JAK3 at 1 uM.

For experiment [14], the target named is Casein kinase I isoform alpha (Homo sapiens) (UniProt P48729). Put plainly: Inhibition of CK1-alpha1 at 1 uM.
Sequence of Casein kinase I isoform alpha (Homo sapiens) (P48729 2-337 limits assumed): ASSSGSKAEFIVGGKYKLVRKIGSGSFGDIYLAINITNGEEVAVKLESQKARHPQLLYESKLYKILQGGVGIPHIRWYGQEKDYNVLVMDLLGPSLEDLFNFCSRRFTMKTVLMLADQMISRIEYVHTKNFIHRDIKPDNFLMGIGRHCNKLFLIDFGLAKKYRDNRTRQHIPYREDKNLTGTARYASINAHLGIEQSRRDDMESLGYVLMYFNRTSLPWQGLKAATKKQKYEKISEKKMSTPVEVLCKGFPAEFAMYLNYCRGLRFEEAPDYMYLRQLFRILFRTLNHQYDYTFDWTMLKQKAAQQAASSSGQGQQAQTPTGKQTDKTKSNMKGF

Sequence of Glycogen synthase kinase-3 beta (Homo sapiens) (P49841 whole entry, looked up): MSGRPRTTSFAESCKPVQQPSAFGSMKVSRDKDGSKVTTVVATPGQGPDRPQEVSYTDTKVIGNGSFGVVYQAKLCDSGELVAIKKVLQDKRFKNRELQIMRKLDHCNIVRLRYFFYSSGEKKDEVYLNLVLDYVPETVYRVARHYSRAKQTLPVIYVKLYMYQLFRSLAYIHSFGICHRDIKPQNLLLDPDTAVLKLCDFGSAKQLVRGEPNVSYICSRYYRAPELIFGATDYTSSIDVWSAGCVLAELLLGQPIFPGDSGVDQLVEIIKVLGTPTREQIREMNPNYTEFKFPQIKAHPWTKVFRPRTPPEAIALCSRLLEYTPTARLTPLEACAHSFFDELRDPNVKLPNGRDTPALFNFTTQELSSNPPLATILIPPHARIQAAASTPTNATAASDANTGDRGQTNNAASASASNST
Sequence of Serine/threonine-protein kinase PAK 4 (Homo sapiens) (O96013 whole entry, looked up): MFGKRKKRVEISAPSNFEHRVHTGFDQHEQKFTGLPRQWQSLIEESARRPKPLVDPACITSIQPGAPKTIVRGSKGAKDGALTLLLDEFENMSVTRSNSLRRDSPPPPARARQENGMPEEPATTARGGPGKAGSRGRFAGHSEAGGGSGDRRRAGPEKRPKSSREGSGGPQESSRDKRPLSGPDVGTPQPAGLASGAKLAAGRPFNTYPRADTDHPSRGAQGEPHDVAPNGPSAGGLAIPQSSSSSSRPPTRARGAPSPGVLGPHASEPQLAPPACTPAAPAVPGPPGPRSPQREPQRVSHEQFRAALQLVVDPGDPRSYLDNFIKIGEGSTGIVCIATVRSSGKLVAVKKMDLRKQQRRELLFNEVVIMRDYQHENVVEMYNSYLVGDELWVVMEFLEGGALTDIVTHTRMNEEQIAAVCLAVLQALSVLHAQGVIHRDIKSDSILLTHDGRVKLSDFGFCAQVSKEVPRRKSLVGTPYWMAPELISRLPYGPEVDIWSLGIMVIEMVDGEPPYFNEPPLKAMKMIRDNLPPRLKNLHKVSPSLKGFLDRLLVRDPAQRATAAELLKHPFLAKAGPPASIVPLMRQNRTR
Sequence of Hepatocyte growth factor receptor (Homo sapiens) (P08581 whole entry): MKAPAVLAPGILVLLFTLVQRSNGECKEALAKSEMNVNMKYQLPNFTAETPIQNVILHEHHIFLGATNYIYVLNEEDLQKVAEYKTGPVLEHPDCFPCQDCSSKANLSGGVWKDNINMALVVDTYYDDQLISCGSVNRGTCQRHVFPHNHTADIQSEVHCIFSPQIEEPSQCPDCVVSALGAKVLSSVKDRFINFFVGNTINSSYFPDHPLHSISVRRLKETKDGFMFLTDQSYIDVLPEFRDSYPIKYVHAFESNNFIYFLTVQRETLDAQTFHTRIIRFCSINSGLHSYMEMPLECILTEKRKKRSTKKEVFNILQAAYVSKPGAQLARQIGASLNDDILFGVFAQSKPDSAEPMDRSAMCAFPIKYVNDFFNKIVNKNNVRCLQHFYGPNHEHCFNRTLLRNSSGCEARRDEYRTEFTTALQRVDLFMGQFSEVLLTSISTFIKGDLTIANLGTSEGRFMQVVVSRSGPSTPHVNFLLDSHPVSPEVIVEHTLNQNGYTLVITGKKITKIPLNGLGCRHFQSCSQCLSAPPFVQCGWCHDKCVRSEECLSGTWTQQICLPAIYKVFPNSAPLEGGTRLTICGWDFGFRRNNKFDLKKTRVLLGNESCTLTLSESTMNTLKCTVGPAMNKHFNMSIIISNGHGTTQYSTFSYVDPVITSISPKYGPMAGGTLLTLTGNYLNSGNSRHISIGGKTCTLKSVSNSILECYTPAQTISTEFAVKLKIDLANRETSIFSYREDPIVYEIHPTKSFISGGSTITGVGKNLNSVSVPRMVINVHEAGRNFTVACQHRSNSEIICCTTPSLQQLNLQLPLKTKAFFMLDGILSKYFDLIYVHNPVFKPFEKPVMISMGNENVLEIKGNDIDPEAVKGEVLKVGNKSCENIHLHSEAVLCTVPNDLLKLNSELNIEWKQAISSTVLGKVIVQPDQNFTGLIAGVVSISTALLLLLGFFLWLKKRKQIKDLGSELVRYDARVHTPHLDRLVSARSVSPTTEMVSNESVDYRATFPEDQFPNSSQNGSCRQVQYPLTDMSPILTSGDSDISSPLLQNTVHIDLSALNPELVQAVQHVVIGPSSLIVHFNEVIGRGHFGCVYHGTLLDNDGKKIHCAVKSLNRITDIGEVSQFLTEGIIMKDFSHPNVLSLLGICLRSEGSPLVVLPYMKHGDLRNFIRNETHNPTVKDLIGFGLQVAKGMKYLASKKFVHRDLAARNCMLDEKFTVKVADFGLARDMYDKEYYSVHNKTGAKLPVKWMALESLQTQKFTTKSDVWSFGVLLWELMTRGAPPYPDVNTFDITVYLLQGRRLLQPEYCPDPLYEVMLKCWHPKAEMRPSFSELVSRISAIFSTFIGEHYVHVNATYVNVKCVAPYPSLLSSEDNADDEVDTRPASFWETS
Sequence of Tyrosine-protein kinase Lck (Homo sapiens) (P06239 2-509 limits assumed): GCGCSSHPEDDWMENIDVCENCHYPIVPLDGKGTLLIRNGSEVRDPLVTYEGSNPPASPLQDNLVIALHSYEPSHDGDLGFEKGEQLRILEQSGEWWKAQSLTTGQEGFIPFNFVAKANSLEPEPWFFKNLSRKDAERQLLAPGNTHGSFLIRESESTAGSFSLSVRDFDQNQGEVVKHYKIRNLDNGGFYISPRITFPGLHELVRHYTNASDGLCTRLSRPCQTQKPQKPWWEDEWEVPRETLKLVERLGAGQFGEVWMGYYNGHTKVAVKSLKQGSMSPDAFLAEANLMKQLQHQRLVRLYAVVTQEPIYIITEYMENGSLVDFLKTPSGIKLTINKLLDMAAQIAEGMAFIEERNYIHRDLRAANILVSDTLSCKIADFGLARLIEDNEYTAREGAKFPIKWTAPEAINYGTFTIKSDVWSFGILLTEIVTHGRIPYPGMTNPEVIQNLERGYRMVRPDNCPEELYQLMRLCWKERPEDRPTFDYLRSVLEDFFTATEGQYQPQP
Sequence of Fibroblast growth factor receptor 1 (Homo sapiens) (P11362 22-822 limits assumed): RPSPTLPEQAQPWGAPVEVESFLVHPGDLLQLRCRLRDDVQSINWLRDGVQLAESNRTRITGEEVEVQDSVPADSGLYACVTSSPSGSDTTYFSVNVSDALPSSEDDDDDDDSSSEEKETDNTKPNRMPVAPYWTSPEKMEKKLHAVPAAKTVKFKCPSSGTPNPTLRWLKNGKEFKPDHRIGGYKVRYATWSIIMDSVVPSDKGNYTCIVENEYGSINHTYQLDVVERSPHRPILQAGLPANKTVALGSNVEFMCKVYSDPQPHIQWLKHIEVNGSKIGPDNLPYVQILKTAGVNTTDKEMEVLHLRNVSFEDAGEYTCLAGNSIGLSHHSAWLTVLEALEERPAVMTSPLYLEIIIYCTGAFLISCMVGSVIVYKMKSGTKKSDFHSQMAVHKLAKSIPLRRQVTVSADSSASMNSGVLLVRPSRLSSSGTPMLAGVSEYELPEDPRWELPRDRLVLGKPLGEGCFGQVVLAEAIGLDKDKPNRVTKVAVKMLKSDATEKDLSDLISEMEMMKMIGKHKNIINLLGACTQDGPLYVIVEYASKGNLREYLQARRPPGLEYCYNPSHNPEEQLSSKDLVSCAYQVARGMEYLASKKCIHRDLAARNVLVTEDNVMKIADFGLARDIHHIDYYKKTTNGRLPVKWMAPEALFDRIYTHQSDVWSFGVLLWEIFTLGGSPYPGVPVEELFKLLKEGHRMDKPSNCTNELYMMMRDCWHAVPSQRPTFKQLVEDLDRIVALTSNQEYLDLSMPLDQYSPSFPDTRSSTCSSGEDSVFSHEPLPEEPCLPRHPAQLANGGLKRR
Sequence of Serine/threonine-protein kinase MARK1 (Homo sapiens) (Q9P0L2 whole entry, looked up): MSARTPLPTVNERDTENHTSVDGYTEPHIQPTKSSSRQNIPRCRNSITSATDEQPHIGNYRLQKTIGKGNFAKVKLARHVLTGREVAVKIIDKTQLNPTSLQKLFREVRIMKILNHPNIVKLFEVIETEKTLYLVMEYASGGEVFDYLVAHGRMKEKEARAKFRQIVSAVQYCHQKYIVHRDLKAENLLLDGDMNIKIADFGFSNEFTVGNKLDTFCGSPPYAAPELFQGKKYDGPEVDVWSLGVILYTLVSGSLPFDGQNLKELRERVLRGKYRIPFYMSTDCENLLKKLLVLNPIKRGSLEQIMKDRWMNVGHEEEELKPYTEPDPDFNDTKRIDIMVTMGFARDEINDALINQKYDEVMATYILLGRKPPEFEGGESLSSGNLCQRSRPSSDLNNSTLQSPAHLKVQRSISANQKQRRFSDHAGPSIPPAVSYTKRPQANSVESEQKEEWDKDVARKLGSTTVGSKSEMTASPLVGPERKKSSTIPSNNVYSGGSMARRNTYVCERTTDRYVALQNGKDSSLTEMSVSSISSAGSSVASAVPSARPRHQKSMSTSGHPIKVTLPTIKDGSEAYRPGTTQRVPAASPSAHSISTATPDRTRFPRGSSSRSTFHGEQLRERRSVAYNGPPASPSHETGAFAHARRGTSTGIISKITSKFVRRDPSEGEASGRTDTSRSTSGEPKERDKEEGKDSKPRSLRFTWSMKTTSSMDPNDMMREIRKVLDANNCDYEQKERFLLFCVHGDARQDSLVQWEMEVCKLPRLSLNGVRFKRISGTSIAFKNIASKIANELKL

As to `O=C(O)COc1ncnc2cc(-c3ccc4[nH]ncc4c3)sc12`, the inhibition is -2.3% in experiment [1]; 27.3% in experiment [2]; 21.8% in experiment [3]; 6% in experiment [4]; -9% in experiment [5]; 25.3% in experiment [6]. The inhibition in [7] is 88.5%; in [8], -3.3%; in experiment [9], 3.3%; in experiment [10] it was 56.5%; in [11], 6.8%; in experiment [12] it was 1.3%. In addition, the inhibition in experiment [13] was determined as 29.5%; in experiment [14] it was 4.5%.
Take `CC(=O)Nc1ccc(-c2cc3ncnc(SCC(=O)O)c3s2)cc1`: the inhibition worked out at 10.8% in [1]; 46.8% in [2]; 9.8% in [3]; 13.8% in experiment [4]; 11% in experiment [5]; 3.3% in [6]. Further, the inhibition is 50.5% in experiment [7]; 27.3% in experiment [8]; 11% in [9]; 50.5% in experiment [10]; -3.3% in [11]; 23% in [12]. Also, the inhibition in [13] was 43.3%; in [14], -1.3%.

These data come from ChEMBL document CHEMBL1833910, “Identification and SAR of a new series of thieno[3,2-d]pyrimidines as Tpl2 kinase inhibitors” (Bioorg Med Chem Lett, 2011).
